According to PubChem BioAssay AID1259407 (Chemical Carcinogenesis Research Information System (CCRIS), 2018):
The source made the active and inactive calls. How the calls were made is not given here.

System: CCRIS mutagenicity, Ames/micronucleus/aberration tests
Experiment: CCRIS mutagenicity studies
[1] = Test System: AMES SALMONELLA TYPHIMURIUM, Strain/Indicator: TA98, Metabolic Activation: NONE, Method: STANDARD PLATE
[2] = Test System: AMES SALMONELLA TYPHIMURIUM, Strain/Indicator: TA100, Metabolic Activation: NONE, Method: STANDARD PLATE
[3] = Test System: AMES SALMONELLA TYPHIMURIUM, Strain/Indicator: TA1535, Metabolic Activation: NONE, Method: STANDARD PLATE
[4] = Test System: AMES SALMONELLA TYPHIMURIUM, Strain/Indicator: TA1537, Metabolic Activation: NONE, Method: STANDARD PLATE
[5] = Test System: AMES SALMONELLA TYPHIMURIUM, Strain/Indicator: TA1538, Metabolic Activation: NONE, Method: STANDARD PLATE
[6] = Test System: AMES SALMONELLA TYPHIMURIUM, Strain/Indicator: TA98, Metabolic Activation: NONE, Method: PREINCUBATION
[7] = Test System: AMES SALMONELLA TYPHIMURIUM, Strain/Indicator: TA100, Metabolic Activation: NONE, Method: PREINCUBATION
[8] = Test System: AMES SALMONELLA TYPHIMURIUM, Strain/Indicator: TA100, Metabolic Activation: RAT, LIVER, S-9, AROCLOR 1254, Method: STANDARD PLATE
[9] = Test System: AMES SALMONELLA TYPHIMURIUM, Strain/Indicator: TA98, Metabolic Activation: RAT, LIVER, S-9, AROCLOR 1254, Method: STANDARD PLATE

CCOCC(O)COc1ccc(NC(=O)CC[S+](C)C)cc1 (stereo not given)
mutagenic call [1]: inactive; negative | mutagenic call (Test System: AMES SALMONELLA TYPHIMURIUM, Strain/Indicator: TA98, Metabolic Activation: RAT, LIVER, S-9, Method: STANDARD PLATE): inactive; negative | mutagenic call [2]: inactive; negative | mutagenic call (Test System: AMES SALMONELLA TYPHIMURIUM, Strain/Indicator: TA100, Metabolic Activation: RAT, LIVER, S-9, Method: STANDARD PLATE): inactive; negative | mutagenic call [3]: inactive; negative | mutagenic call (Test System: AMES SALMONELLA TYPHIMURIUM, Strain/Indicator: TA1535, Metabolic Activation: RAT, LIVER, S-9, Method: STANDARD PLATE): inactive; negative | mutagenic call [4]: inactive; negative | mutagenic call (Test System: AMES SALMONELLA TYPHIMURIUM, Strain/Indicator: TA1537, Metabolic Activation: RAT, LIVER, S-9, Method: STANDARD PLATE): inactive; negative | mutagenic call [5]: inactive; negative | mutagenic call (Test System: AMES SALMONELLA TYPHIMURIUM, Strain/Indicator: TA1538, Metabolic Activation: RAT, LIVER, S-9, Method: STANDARD PLATE): inactive; negative | mutagenic call (Test System: E. COLI, Strain/Indicator: WP2, Metabolic Activation: NONE, Method: STANDARD PLATE): inactive; negative | mutagenic call (Test System: E. COLI, Strain/Indicator: WP2, Metabolic Activation: RAT, LIVER, S-9, Method: STANDARD PLATE): inactive; negative | mutagenic call (Test System: E. COLI, Strain/Indicator: WP2 UVRA, Metabolic Activation: NONE, Method: STANDARD PLATE): inactive; negative | mutagenic call (Test System: E. COLI, Strain/Indicator: WP2 UVRA, Metabolic Activation: RAT, LIVER, S-9, Method: STANDARD PLATE): inactive; negative

c1ccc2cc3c(cc2c1)-c1cccc2cccc-3c12
mutagenic call (Test System: AMES SALMONELLA TYPHIMURIUM, Strain/Indicator: TA98, Metabolic Activation: HAMSTER, LIVER, S-9, AROCLOR 1254 (30%), Method: PREINCUBATION): active; positive | mutagenic call [6]: inactive; negative | mutagenic call (Test System: AMES SALMONELLA TYPHIMURIUM, Strain/Indicator: TA98, Metabolic Activation: RAT, LIVER, S-9, AROCLOR 1254 (30%), Method: PREINCUBATION): active; positive | mutagenic call (Test System: AMES SALMONELLA TYPHIMURIUM, Strain/Indicator: TA100, Metabolic Activation: HAMSTER, LIVER, S-9, AROCLOR 1254 (30%), Method: PREINCUBATION): active; positive | mutagenic call [7]: inactive; negative | mutagenic call (Test System: AMES SALMONELLA TYPHIMURIUM, Strain/Indicator: TA100, Metabolic Activation: RAT, LIVER, S-9, AROCLOR 1254): active; positive | mutagenic call (Test System: AMES SALMONELLA TYPHIMURIUM, Strain/Indicator: TA100, Metabolic Activation: RAT, LIVER, S-9, AROCLOR 1254 (30%), Method: PREINCUBATION): active; positive | mutagenic call [8]: active; positive

[Cl][Sn]([Cl])([Cl])[Cl]
mutagenic call (Test System: AMES SALMONELLA TYPHIMURIUM, Strain/Indicator: TA98, Metabolic Activation: NONE, Method: SUSPENSION/PLATE): inactive; negative | mutagenic call (Test System: AMES SALMONELLA TYPHIMURIUM, Strain/Indicator: TA100, Metabolic Activation: NONE, Method: SUSPENSION/PLATE): inactive; negative

CC(=O)CC1CCC(=O)CCC(=O)OC(CC(C)=O)CCC(O)CCC(=O)O1 (stereo not given)
mutagenic call (Test System: CHINESE HAMSTER V-79, Strain/Indicator: V-79 (HPRT)/6-THIOGUANINE, Metabolic Activation: NONE): inactive; negative

C1CSCCS1
mutagenic call [9]: inactive; negative | mutagenic call (Test System: AMES SALMONELLA TYPHIMURIUM, Strain/Indicator: TA98, Metabolic Activation: S-9, Method: STANDARD PLATE): inactive; negative | mutagenic call [8]: inactive; negative | mutagenic call (Test System: AMES SALMONELLA TYPHIMURIUM, Strain/Indicator: TA100, Metabolic Activation: S-9, Method: STANDARD PLATE): inactive; negative | mutagenic call [3]: inactive; negative | mutagenic call (Test System: AMES SALMONELLA TYPHIMURIUM, Strain/Indicator: TA1535, Metabolic Activation: S-9, Method: STANDARD PLATE): inactive; negative | mutagenic call [4]: inactive; negative | mutagenic call (Test System: AMES SALMONELLA TYPHIMURIUM, Strain/Indicator: TA1537, Metabolic Activation: S-9, Method: STANDARD PLATE): inactive; negative | mutagenic call [5]: inactive; negative | mutagenic call (Test System: AMES SALMONELLA TYPHIMURIUM, Strain/Indicator: TA1538, Metabolic Activation: S-9, Method: STANDARD PLATE): inactive; negative

CC/C(=C(/c1ccc(OCCN(C)C)cc1)c1ccc(OP(=O)(O)O)cc1)c1ccc(C(C)C)cc1
mutagenic call [6]: inactive; negative | mutagenic call (Test System: AMES SALMONELLA TYPHIMURIUM, Strain/Indicator: TA98, Metabolic Activation: RAT, LIVER, S-9, Method: PREINCUBATION): inactive; negative | mutagenic call [7]: inactive; negative | mutagenic call (Test System: AMES SALMONELLA TYPHIMURIUM, Strain/Indicator: TA100, Metabolic Activation: RAT, LIVER, S-9, Method: PREINCUBATION): inactive; negative | mutagenic call (Test System: AMES SALMONELLA TYPHIMURIUM, Strain/Indicator: TA1535, Metabolic Activation: NONE, Method: PREINCUBATION): inactive; negative | mutagenic call (Test System: AMES SALMONELLA TYPHIMURIUM, Strain/Indicator: TA1535, Metabolic Activation: RAT, LIVER, S-9, Method: PREINCUBATION): inactive; negative | mutagenic call (Test System: AMES SALMONELLA TYPHIMURIUM, Strain/Indicator: TA1537, Metabolic Activation: NONE, Method: PREINCUBATION): inactive; negative | mutagenic call (Test System: AMES SALMONELLA TYPHIMURIUM, Strain/Indicator: TA1537, Metabolic Activation: RAT, LIVER, S-9, Method: PREINCUBATION): inactive; negative | mutagenic call (Test System: E. COLI, Strain/Indicator: WP2 UVRA, Metabolic Activation: NONE, Method: PREINCUBATION): inactive; negative | mutagenic call (Test System: E. COLI, Strain/Indicator: WP2 UVRA, Metabolic Activation: RAT, LIVER, S-9, Method: PREINCUBATION): inactive; negative

O=[As](O)(O)O
mutagenic call (End Point: IN VITRO CHROMOSOMAL ABERRATIONS, Test System: CHINESE HAMSTER OVARY (CHO), Metabolic Activation: NONE): active; positive (structural changes: gaps, breaks) | mutagenic call (End Point: IN VITRO MICRONUCLEUS, Test System: CHINESE HAMSTER V-79, Metabolic Activation: NONE): active; positive | mutagenic call (End Point: In vitro chromosomal aberrations, Test System: Human peripheral lymphocytes, Metabolic Activation: None): active; positive | mutagenic call (End Point: In vitro micronucleus, Test System: Human peripheral lymphocytes, Metabolic Activation: None): active; positive | mutagenic call (End Point: In vivo micronucleus, Test System: Bone marrow polychromatic erythrocytes, Species: Mouse, Strain/Sex: C57BI/6J/Female, Route: Oral): inactive; negative | mutagenic call (Test System: AMES SALMONELLA TYPHIMURIUM, Strain/Indicator: TA102, Metabolic Activation: NONE, Method: STANDARD PLATE): inactive; negative | mutagenic call (Test System: CHINESE HAMSTER V-79, Strain/Indicator: SP5 V-79 (HPRT)/6-THIOGUANINE, Metabolic Activation: NONE, Method: STANDARD PLATE): inactive; negative | mutagenic call (Test System: CHINESE HAMSTER V-79, Strain/Indicator: SPD8 V-79 (HPRT)/6-THIOGUANINE, Metabolic Activation: NONE, Method: STANDARD PLATE): active; positive | mutagenic call (Test System: E. COLI, Strain/Indicator: WP2 UVRA, Metabolic Activation: NONE, Method: SPOT TEST): inactive; negative | mutagenic call (Test System: MOUSE LYMPHOMA, Strain/Indicator: L5178Y (TK+/TK-), Metabolic Activation: NONE, Method: SUSPENSION/PLATE): active; positive

Cc1cc(N)c([N+](=O)[O-])cc1N
mutagenic call [1]: inactive; negative | mutagenic call [9]: active; positive | mutagenic call [2]: inactive; negative | mutagenic call [8]: inactive; negative | mutagenic call [3]: inactive; negative | mutagenic call (Test System: AMES SALMONELLA TYPHIMURIUM, Strain/Indicator: TA1535, Metabolic Activation: RAT, LIVER, S-9, AROCLOR 1254, Method: STANDARD PLATE): inactive; negative | mutagenic call [4]: inactive; negative | mutagenic call (Test System: AMES SALMONELLA TYPHIMURIUM, Strain/Indicator: TA1537, Metabolic Activation: RAT, LIVER, S-9, AROCLOR 1254, Method: STANDARD PLATE): active; positive | mutagenic call [5]: inactive; negative | mutagenic call (Test System: AMES SALMONELLA TYPHIMURIUM, Strain/Indicator: TA1538, Metabolic Activation: RAT, LIVER, S-9, AROCLOR 1254, Method: STANDARD PLATE): active; positive
